The values that follow come from the NIST ThermoML archive (doi:10.1016/j.fluid.2018.06.013).

This data set in a line: activity coefficient (dimensionless); of the first substance listed, at infinite dilution; xn = mol fraction of the nth substance listed. Particulars: 100 kPa, Liquid, Chromatography, x1 = 0.

Numbers after ± are expanded uncertainties.

`CCCCCCCCC` [nonane] + CCCC[N+]1(C)CCCC1.N#CN=C=[N-]: the activity coefficient runs as follows: (313.15 K) 172 ± 18; (323.15 K) 154 ± 16; (343.15 K) 133 ± 14; (363.15 K) 120 ± 13; (373.15 K) 114 ± 12.

With `C=CCCCCCC` [oct-1-ene] + CCCC[N+]1(C)CCCC1.N#CN=C=[N-], the activity coefficient was 47.8 ± 5 (313.15 K); 46.3 ± 4.9 (323.15 K); 42.8 ± 4.5 (343.15 K); 40.3 ± 4.2 (363.15 K); 39 ± 4.1 (373.15 K).

On to `CCCCCCCC` [octane] + CCCC[N+]1(C)CCCC1.N#CN=C=[N-], for which the activity coefficient reads like this: (313.15 K) 119 ± 13; (323.15 K) 111 ± 12; (343.15 K) 96 ± 10; (363.15 K) 86 ± 9.1; (373.15 K) 81 ± 8.5.

Consider `CCCC(C)=O` [pentan-2-one] + CCCC[N+]1(C)CCCC1.N#CN=C=[N-], for which the activity coefficient runs as follows: (313.15 K) 1.73 ± 0.18; (323.15 K) 1.79 ± 0.19; (343.15 K) 1.89 ± 0.2; (363.15 K) 1.96 ± 0.21; (373.15 K) 2.02 ± 0.21.

In the case of `CCC(=O)CC` [pentan-3-one] + CCCC[N+]1(C)CCCC1.N#CN=C=[N-], the activity coefficient runs as follows: (313.15 K) 1.7 ± 0.18; (323.15 K) 1.76 ± 0.18; (343.15 K) 1.9 ± 0.2; (363.15 K) 1.99 ± 0.21; (373.15 K) 2.04 ± 0.21.

Turning to `CCCO` [propan-1-ol] + CCCC[N+]1(C)CCCC1.N#CN=C=[N-], the activity coefficient stood at 0.649 ± 0.068 (313.15 K); 0.645 ± 0.068 (323.15 K); 0.648 ± 0.068 (343.15 K); 0.665 ± 0.07 (363.15 K); 0.638 ± 0.067 (373.15 K).

`CC(C)O` [propan-2-ol] + CCCC[N+]1(C)CCCC1.N#CN=C=[N-]: the activity coefficient was 0.744 ± 0.077 (313.15 K); 0.719 ± 0.075 (323.15 K); 0.714 ± 0.074 (343.15 K); 0.711 ± 0.074 (363.15 K); 0.696 ± 0.073 (373.15 K).

Turning to `CCC=O` [propanal] + CCCC[N+]1(C)CCCC1.N#CN=C=[N-], the activity coefficient runs as follows: (313.15 K) 1.04 ± 0.11; (323.15 K) 1.05 ± 0.11; (343.15 K) 1.1 ± 0.1; (363.15 K) 1.16 ± 0.12; (373.15 K) 1.21 ± 0.12.

Take `c1ccncc1` [pyridine] + CCCC[N+]1(C)CCCC1.N#CN=C=[N-]: the activity coefficient reads like this: (313.15 K) 1.02 ± 0.1; (323.15 K) 1.05 ± 0.11; (343.15 K) 1.07 ± 0.11; (363.15 K) 1.11 ± 0.11; (373.15 K) 1.13 ± 0.12.

Regarding `C=Cc1ccccc1` [styrene] + CCCC[N+]1(C)CCCC1.N#CN=C=[N-], the activity coefficient was 1.49 ± 0.15 (313.15 K); 1.54 ± 0.16 (323.15 K); 1.7 ± 0.18 (343.15 K); 1.8 ± 0.19 (363.15 K); 1.9 ± 0.2 (373.15 K).

Turning to `C1CCOC1` [tetrahydrofuran] + CCCC[N+]1(C)CCCC1.N#CN=C=[N-], the activity coefficient by setting is: (313.15 K) 1.34 ± 0.14; (323.15 K) 1.39 ± 0.14; (343.15 K) 1.48 ± 0.15; (363.15 K) 1.56 ± 0.16; (373.15 K) 1.6 ± 0.17.

With `c1ccsc1` [thiophene] + CCCC[N+]1(C)CCCC1.N#CN=C=[N-], the activity coefficient by setting is: (313.15 K) 0.807 ± 0.083; (323.15 K) 0.845 ± 0.087; (343.15 K) 0.929 ± 0.095; (363.15 K) 1.01 ± 0.1; (373.15 K) 1.05 ± 0.11.

As to `Cc1ccccc1` [toluene] + CCCC[N+]1(C)CCCC1.N#CN=C=[N-], the activity coefficient is 2.07 ± 0.22 (313.15 K); 2.14 ± 0.22 (323.15 K); 2.3 ± 0.24 (343.15 K); 2.43 ± 0.26 (363.15 K); 2.48 ± 0.26 (373.15 K).
